The supplement of paper PMC11061612

Assays:
[1] = tested on: TT (Thyroid Gland Carcinoma); test: Bliss excess, mean over the matrix (fraction); higher = more synergy
Outline: (§1)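 Bliss excess equals the observed combination effect minus the expected value EA + EB − EA·EB, where EA and EB are the effects of each agent alone. Combination Emax is the second-highest inhibition within the matrix. Inhibition was scaled from CellTiter-Glo 2.0 luminescence, with 0 set by vehicle wells and 1 by blank wells, after 72 hours of two-drug dosing of cells plated in 1536-well plates.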

[2] = tested on: CAL-29 (Bladder Carcinoma); test: as above
Outline: as §1

IGR-37 (Melanoma) = test: as above
Outline: as §1

[3] = tested on: MDST8 (Colorectal Carcinoma); test: as above
Outline: as §1

[4] = tested on: VCaP (Prostate Carcinoma); test: as above
Outline: as §1

[5] = tested on: NCI-H2066 (Squamous Cell Lung Carcinoma); test: as above
Outline: as §1

[6] = tested on: COLO-320-HSR (Colorectal Carcinoma); test: as above
Outline: as §1

CAS-1 (Glioblastoma) = test: as above
Outline: as §1

NY (Osteosarcoma) = test: as above
Outline: as §1

[7] = tested on: SK-MG-1 (Low Grade Glioma); test: as above
Outline: as §1

NCI-H2591 (Mesothelioma) [8] = test: as above
Outline: as §1

[9] = tested on: NCI-H2141 (Small Cell Lung Carcinoma); test: as above
Outline: as §1

[10] = tested on: OS-RC-2 (Kidney Carcinoma); test: as above
Outline: as §1

[11] = tested on: HCC1954 (Breast Carcinoma); test: as above
Outline: as §1

[12] = tested on: SISO (Cervical Carcinoma); test: as above
Outline: as §1

[13] = tested on: TT2609-C02 (Thyroid Gland Carcinoma); test: as above
Outline: as §1

[14] = tested on: NCI-H1581 (Non-Small Cell Lung Carcinoma); test: as above
Outline: as §1

[15] = tested on: MDST8 (Colorectal Carcinoma); test: combination Emax (second highest fraction inhibited in the dose matrix, 72 h); higher = more inhibition; extreme values may be limits of the assay
Outline: as §1

NCI-H2591 (Mesothelioma) [16] = test: as above
Outline: as §1

[17] = tested on: TT2609-C02 (Thyroid Gland Carcinoma); test: as above
Outline: as §1

| Structure (SMILES) | Bliss excess [1] | Bliss excess [2] | Bliss excess (IGR-37 (Melanoma)) | Bliss excess [3] | Bliss excess [4] | Bliss excess [5] | Bliss excess [6] | Bliss excess (CAS-1 (Glioblastoma)) | Bliss excess (NY (Osteosarcoma)) | Bliss excess [7] | Bliss excess (NCI-H2591 (Mesothelioma) [8]) | Bliss excess [9] | Bliss excess [10] | Bliss excess [11] | Bliss excess [12] | Bliss excess [13] | Bliss excess [14] | combination Emax [15] | combination Emax (NCI-H2591 (Mesothelioma) [16]) | combination Emax [17] |
| --- | --- | --- | --- | --- | --- | --- | --- | --- | --- | --- | --- | --- | --- | --- | --- | --- | --- | --- | --- | --- |
| COc1nnc2ccc(N3CCC(c4ccc(OCCN5CCN(C)C(=O)[C@H]5C)cc4)CC3)nn12 [AZD5153] + C[C@@H]1COCCN1C2=NC(=NC(=C2)C3(CC3)[S@](=N)(=O)C)C4=C5C=CNC5=NC=C4 [AZD6738] (first compound max 1 µM, 7x7, partner max 10 µM) | 0.0167 | 0.0219 | -0.0149 | 0.0544 | -0.0521 | -0.0454 | 0.0292 | 0.0116 | -0.0188 | -0.0065 | 0.0634 | 0.043 | 0.0699 | 0.0323 | 0.008 | 0.0179 | 0.0013 | 0.812 | 0.558 | 0.521 |
| COc1nnc2ccc(N3CCC(c4ccc(OCCN5CCN(C)C(=O)[C@H]5C)cc4)CC3)nn12 [AZD5153] + Cc1c2c(nn1C)CSCc1cc(n(C)n1)CSc1cc(c3ccccc3c1)OCCCc1c(C(=O)O)n(C)c3c-2c(Cl)ccc13 [AZD5991] (first compound max 1 µM, 7x7, partner max 1 µM) | -0.0291 | -0.0162 | 0.0608 | 0.0069 | -0.0242 | -0.0569 | -0.112 | -0.0333 | -0.0656 | -0.0383 | -0.0657 | 0.0096 | -0.0106 | 0.0771 | 0.0698 | -0.0295 | -0.0739 | 0.355 | 0.368 | 0.454 |
| COc1nnc2ccc(N3CCC(c4ccc(OCCN5CCN(C)C(=O)[C@H]5C)cc4)CC3)nn12 [AZD5153] + Cn1cnc2c(F)c(Nc3ccc(Br)cc3Cl)c(C(=O)NOCCO)cc21 [Selumetinib] (first compound max 1 µM, 7x7, partner max 10 µM) | -0.0018 | 0.0393 | 0.0624 | 0.0646 | -0.059 | -0.0123 | -0.0095 | -0.0548 | -0.005 | -0.0443 | -0.0065 | -0.0277 | -0.0235 | -0.0118 | -0.008 | -0.0074 | -0.0141 | 0.826 | 0.629 | 0.652 |
| Cc1c2c(nn1C)CSCc1cc(n(C)n1)CSc1cc(c3ccccc3c1)OCCCc1c(C(=O)O)n(C)c3c-2c(Cl)ccc13 [AZD5991] + C=CCn1c(=O)c2cnc(Nc3ccc(N4CCN(C)CC4)cc3)nc2n1-c1cccc(C(C)(C)O)n1 [AZD1775] (first compound max 1 µM, partner max 1 µM) | 0.007 | 0.0878 | -0.0015 | 0.0087 | -0.011 | -0.0231 | 0.045 | 0.0452 | -0.0177 | 0.0333 | 0.0396 | -0.0145 | -0.0046 | 0.0435 | -0.0417 | 0.0087 | -0.0365 | 0.597 | 0.266 | 0.617 |
| Cc1c2c(nn1C)CSCc1cc(n(C)n1)CSc1cc(c3ccccc3c1)OCCCc1c(C(=O)O)n(C)c3c-2c(Cl)ccc13 [AZD5991] + CC1(C)CCC(CN2CCN(c3ccc(C(=O)NS(=O)(=O)c4ccc(NCC5CCOCC5)c([N+](=O)[O-])c4)c(Oc4cnc5[nH]ccc5c4)c3)CC2)=C(c2ccc(Cl)cc2)C1 [Venetoclax] (first compound max 1 µM, 7x7, partner max 1 µM) | 0.0887 | 0.0101 | -0.0167 | -0.0359 | -0.0351 | -0.0303 | 0.0419 | -0.0284 | 0.0232 | -0.0221 | -0.0252 | 0.107 | -0.0686 | 0.0401 | -0.0181 | -0.0069 | -0.0061 | 0.228 | 0.154 | 0.178 |
| Cc1c2c(nn1C)CSCc1cc(n(C)n1)CSc1cc(c3ccccc3c1)OCCCc1c(C(=O)O)n(C)c3c-2c(Cl)ccc13 [AZD5991] + CCN(CCO)CCCOc1ccc2c(Nc3cc(CC(=O)Nc4cccc(F)c4)[nH]n3)ncnc2c1 [AZD2811] (first compound max 1 µM, 7x7, partner max 1 µM) | -0.0735 | 0.072 | 0.0533 | 0.0586 | 0.08 | 0.0154 | 0.0198 | 0.061 | 0.0542 | 0.0619 | 0.0208 | 0.0657 | -0.0634 | 0.105 | 0.108 | 0.0119 | 0.108 | 0.362 | 0.265 | 0.456 |
| Cc1c2c(nn1C)CSCc1cc(n(C)n1)CSc1cc(c3ccccc3c1)OCCCc1c(C(=O)O)n(C)c3c-2c(Cl)ccc13 [AZD5991] + CN(C)CCCOc1ccc(-c2ccc3ncc4c(c3c2)n(C2CCOCC2)c(=O)n4C)cn1 [AZD0156] (first compound max 1 µM, 7x7, partner max 1 µM) | -0.071 | 0.0308 | 0.0148 | 0.0114 | 0.0034 | -0.0084 | 0.0531 | 0.0497 | 0.0299 | 0.0058 | 0.0036 | -0.0146 | -0.0096 | 0.0247 | 0.0222 | 0.0199 | 0.0383 | 0.242 | 0.185 | 0.212 |
| Cc1c2c(nn1C)CSCc1cc(n(C)n1)CSc1cc(c3ccccc3c1)OCCCc1c(C(=O)O)n(C)c3c-2c(Cl)ccc13 [AZD5991] + C[C@@H](Nc1cc(F)cc(F)c1)c1cc(C(=O)N(C)C)cc2c(=O)cc(N3CCOCC3)oc12 [AZD8186] (first compound max 1 µM, 7x7, partner max 3 µM) | -0.0219 | 0.0096 | 0.038 | -0.0268 | -0.0086 | -0.0445 | -0.0004 | -0.0108 | 0.08 | -0.0124 | -0.0164 | 0.0257 | -0.0226 | 0.031 | -0.0067 | -0.0192 | -0.0068 | 0.265 | 0.196 | 0.303 |
| Cc1c2c(nn1C)CSCc1cc(n(C)n1)CSc1cc(c3ccccc3c1)OCCCc1c(C(=O)O)n(C)c3c-2c(Cl)ccc13 [AZD5991] + Cc1cc2ncnn2cc1Nc1ncc2c(n1)n(C1CCOCC1)c(=O)n2C [AZD7648] (first compound max 1 µM, 7x7, partner max 10 µM) | -0.0112 | 0.014 | 0.0039 | -0.0487 | -0.0067 | -0.0141 | -0.0184 | -0.0723 | -0.0319 | -0.0349 | -0.0106 | -0.0101 | -0.068 | -0.0095 | -0.0221 | -0.038 | -0.0026 | 0.34 | 0.305 | 0.205 |
| Cc1c2c(nn1C)CSCc1cc(n(C)n1)CSc1cc(c3ccccc3c1)OCCCc1c(C(=O)O)n(C)c3c-2c(Cl)ccc13 [AZD5991] + Cn1cnc2c(F)c(Nc3ccc(Br)cc3Cl)c(C(=O)NOCCO)cc21 [Selumetinib] (first compound max 1 µM, 7x7, partner max 3 µM) | -0.0526 | 0.0436 | 0.0044 | -0.0014 | -0.0213 | 0.0459 | 0.0173 | -0.0036 | -0.0312 | 0.0044 | -0.0127 | 0.0056 | -0.0557 | 0.0333 | -0.0134 | -0.0402 | 0.0803 | 0.746 | 0.27 | 0.569 |
| C[C@@H]1COCCN1c1cc(C2([S@](C)(=N)=O)CC2)nc(-c2ccnc3[nH]ccc23)n1 [AZD6738] + O=C(c1cc(Cc2n[nH]c(=O)c3ccccc23)ccc1F)N1CCN(C(=O)C2CC2)CC1 [Olaparib] (first compound max 10 µM, 7x7, partner max 10 µM) | -0.0219 | -0.0405 | -0.0475 | 0.0052 | -0.0107 | -0.0682 | -0.0357 | 0.0743 | -0.0521 | 0.0121 | 0.0123 | 0.0682 | -0.0085 | 0.0028 | 0.0221 | 0.0176 | 0.0166 | 0.677 | 0.348 | 0.316 |
| Cc1cc2ncnn2cc1Nc1ncc2c(n1)n(C1CCOCC1)c(=O)n2C [AZD7648] + C=CCn1c(=O)c2cnc(Nc3ccc(N4CCN(C)CC4)cc3)nc2n1-c1cccc(C(C)(C)O)n1 [AZD1775] (first compound max 10 µM, partner max 1 µM) | -0.0215 | -0.0241 | -0.0007 | 0.0177 | -0.0497 | -0.105 | -0.0082 | 0.0219 | -0.0547 | 0.009 | 0.0043 | -0.0515 | -0.0474 | 0.0065 | -0.0005 | -0.0218 | -0.0334 | 0.513 | 0.368 | 0.304 |
| Cc1cc2ncnn2cc1Nc1ncc2c(n1)n(C1CCOCC1)c(=O)n2C [AZD7648] + CCN(CCO)CCCOc1ccc2c(Nc3cc(CC(=O)Nc4cccc(F)c4)[nH]n3)ncnc2c1 [AZD2811] (first compound max 10 µM, 7x7, partner max 1 µM) | -0.0266 | 0.0545 | 0.0315 | 0.0619 | 0.0023 | -0.0318 | 0.0372 | 0.0895 | 0.0076 | 0.0477 | 0.0506 | 0.0625 | 0.0201 | 0.0561 | 0.0662 | 0.0149 | 0.0122 | 0.485 | 0.37 | 0.244 |
| Cc1cc2ncnn2cc1Nc1ncc2c(n1)n(C1CCOCC1)c(=O)n2C [AZD7648] + CN(C)CCCOc1ccc(-c2ccc3ncc4c(c3c2)n(C2CCOCC2)c(=O)n4C)cn1 [AZD0156] (first compound max 10 µM, 7x7, partner max 1 µM) | -0.0269 | -0.0282 | 0.0285 | 0.0012 | 0.0154 | -0.026 | 0.0391 | -0.0246 | -0.0172 | 0.0047 | -0.0089 | 0.0033 | 0.0028 | 0.0111 | 0.0339 | -0.0188 | 0.0088 | 0.439 | 0.334 | 0.0937 |
